Values after ≈ are worked out from the molar mass of the structure shown. A value given as a limit tells only on which side of the number the result lay.

The test system of test [1] is quinolone resistant E. coli LZ3111. Briefly: Antibacterial activity, MIC, quinolone resistant E. coli LZ3111. Format: cell-based, Escherichia coli. Conditions: Escherichia coli, read-out: MIC, LZ3111. The text has this:
(§1) The antibacterial activity from a microbroth dilution method may be presented as the minimum inhibitory concentration (MIC in […]). The MIC value is the lowest concentration of a drug which prevents macroscopically visible bacterial growth under test conditions.
Mutations in these regions are known to confer a high level resistance to the quinolone class of antibiotics.

The subject of test [2] is Haemophilus influenzae (H. influenzae) 49247. The experiment in a line: Antibacterial activity, MIC, H. influenzae 49247. The format is cell-based. Conditions: Haemophilus influenzae; H. influenzae 49247; read-out: MIC 49247. The essentials: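 A microbroth dilution method gave the minimum inhibitory concentration for each compound against H. influenzae 49247, a Gram-negative bacterium. MIC means the smallest concentration of drug at which no macroscopically visible bacterial growth appears under the conditions of the test.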

The subject of test [3] is Moraxella catarrhalis (M. catarrhalis) 25238. The experiment in a line: Antibacterial activity, MIC, M. catarrhalis 25238. The format is cell-based. The settings on record: Moraxella catarrhalis, M. catarrhalis 25238; read-out: MIC 25238.
The subject of test [4] is Neisseria meningitidis (N. meningitidis) 13090. The experiment in a line: Antibacterial activity, MIC, N. meningitidis 13090. The format is cell-based. The settings on record: Neisseria meningitidis; N. meningitidis 13090; read-out: MIC 13090.
The subject of test [5] is E. coli ELZ4000 (MDR clinical isolate). Briefly: Antibacterial activity, MIC, MDR E. coli ELZ4000. Format: cell-based, Escherichia coli. The settings on record: Escherichia coli; E. coli ELZ4000, MDR clinical isolate; read-out: MIC ELZ4000.
Test [6] concerns super sensitive Gram-negative Escherichia coli (E. coli) BAS849. Briefly: Antibacterial activity, microbroth dilution MIC, E. coli BAS849. Format: cell-based. Conditions: Escherichia coli; E. coli BAS849, microbroth dilution; read-out: MIC, BAS849. In general terms: Dilution methods test growth across graded concentrations, often in twofold steps.
Test [7] has as its system E. coli ELZ4251 (MDR clinical isolate). Briefly: Antibacterial activity, MIC, MDR E. coli ELZ4251. Format: cell-based, Escherichia coli. The settings on record: Escherichia coli, E. coli ELZ4251, MDR clinical isolate; read-out: MIC ELZ4251.
In test [8] the test system is Pseudomonas aeruginosa (P. aeruginosa) 27853. Briefly: Antibacterial activity, MIC, P. aeruginosa 27853. Conditions: Pseudomonas aeruginosa, P. aeruginosa 27853; read-out: MIC 27853. The format is cell-based.
From the text: as §1
Antibacterial activity of test compounds against the Gram-negative bacterium Pseudomonas aeruginosa (P. aeruginosa) 27853 is shown in Table 5.

The subject of test [9] is Gram-positive Staphylococcus aureus (S. aureus) 29213. The experiment in a line: Antibacterial activity, microbroth dilution MIC, S. aureus 29213. Format: cell-based. Conditions: Staphylococcus aureus; S. aureus 29213, microbroth dilution; read-out: MIC, 29213.
Test [10] deals with control Gram-negative E. coli 25922 strain. Briefly: Antibacterial activity, microbroth dilution MIC, E. coli 25922. The format is cell-based, Escherichia coli. The settings on record: Escherichia coli; E. coli 25922, microbroth dilution; read-out: MIC, 25922.

Consider `CC(C)c1c(-c2ccc(N(C)C)cc2)[nH]c(=O)c(C(=O)O)c1O` [Cpd 96, 6-[4-(dimethylamino)phenyl]-4-hydroxy-2-oxo-5-(propan-2-yl)-1,2-dihydropyridine-3-carboxylic acid], for which the MIC is 12.5 to 150 µg/mL (≈ 39.5 to 474 µM) in test [1]; less than 1 µg/mL in test [2]; less than 1 µg/mL in test [3]; less than 1 µg/mL in test [4]; 12.5 to 150 µg/mL (≈ 39.5 to 474 µM) in test [5]; less than 1 µg/mL in [6]. Moreover, the MIC is 12.5 to 150 µg/mL (≈ 39.5 to 474 µM) in [7], 12.5 to 150 µg/mL (≈ 39.5 to 474 µM) in [8], 3.5 to 12.5 µg/mL (≈ 11.1 to 39.5 µM) in [9] and 3.5 to 12.5 µg/mL (≈ 11.1 to 39.5 µM) in [10].
In the case of `CCc1c(-c2ccc(-n3ccnc3)cc2)[nH]c(=O)c(C(=O)O)c1O` [Cpd 107, 5-ethyl-4-hydroxy-6-[4-(1H-imidazol-1-yl)phenyl]-2-oxo-1,2-dihydropyridine-3-carboxylic acid], the MIC in [1] was 12.5 to 150 µg/mL (≈ 38.4 to 461 µM); in test [2], less than 1 µg/mL; in test [3], less than 1 µg/mL; in test [4], less than 1 µg/mL; in test [5] it was 12.5 to 150 µg/mL (≈ 38.4 to 461 µM); in test [6] it was 1 to 3.5 µg/mL (≈ 3.07 to 10.8 µM). Moreover, the MIC in test [7], in [8], in [9] and in [10] was 12.5 to 150 µg/mL (≈ 38.4 to 461 µM) throughout.
In the case of `CCc1cc(C(=O)O)c(=O)[nH]c1-c1ccc(N2CCCCC2)cc1` [Cpd 108, 5-ethyl-2-oxo-6-[4-(piperidin-1-yl)phenyl]-1,2-dihydropyridine-3-carboxylic acid], the MIC in test [1] was 12.5 to 150 µg/mL (≈ 38.3 to 460 µM); in test [2], less than 1 µg/mL; in [3] it was less than 1 µg/mL; in test [4] it was less than 1 µg/mL; in test [5], 12.5 to 150 µg/mL (≈ 38.3 to 460 µM); in test [6], less than 1 µg/mL. Besides, the MIC in test [7], in [8], in test [9] and in [10] was 12.5 to 150 µg/mL (≈ 38.3 to 460 µM) throughout.
For `CCc1cc(C(=O)O)c(=O)[nH]c1-c1ccc(N2CCOCC2)cc1` [Cpd 110, 5-ethyl-6-[4-(morpholin-4-yl)phenyl]-2-oxo-1,2-dihydropyridine-3-carboxylic acid], the MIC in test [1] was 12.5 to 150 µg/mL (≈ 38.1 to 457 µM); in test [2], less than 1 µg/mL; in [3], less than 1 µg/mL; in test [4], less than 1 µg/mL; in [5] it was 12.5 to 150 µg/mL (≈ 38.1 to 457 µM); in test [6], less than 1 µg/mL. For the same molecule, the MIC in test [7] was in the range of 12.5 to 150 µg/mL (≈ 38.1 to 457 µM); in test [8], 12.5 to 150 µg/mL (≈ 38.1 to 457 µM); in test [9], 12.5 to 150 µg/mL (≈ 38.1 to 457 µM); in test [10], 3.5 to 12.5 µg/mL (≈ 10.7 to 38.1 µM).
With `CCc1cc(C(=O)O)c(=O)[nH]c1-c1ccc(N2CCC2)cc1` [Cpd 111, 6-[4-(azetidin-1-yl)phenyl]-5-ethyl-2-oxo-1,2-dihydropyridine-3-carboxylic acid], the MIC in test [1] is 12.5 to 150 µg/mL (≈ 41.9 to 503 µM); in [2], less than 1 µg/mL; in [3], less than 1 µg/mL; in [4], less than 1 µg/mL; in [5] it was 12.5 to 150 µg/mL (≈ 41.9 to 503 µM); in [6] it was less than 1 µg/mL. The MIC was 12.5 to 150 µg/mL (≈ 41.9 to 503 µM) in test [7], 12.5 to 150 µg/mL (≈ 41.9 to 503 µM) in test [8], 12.5 to 150 µg/mL (≈ 41.9 to 503 µM) in test [9] and 1 to 3.5 µg/mL (≈ 3.35 to 11.7 µM) in test [10].
In the case of `CCc1c(-c2ccc(N3CCCC3=O)cc2)[nH]c(=O)c(C(=O)O)c1O` [Cpd 115, 5-ethyl-4-hydroxy-2-oxo-6-[4-(2-oxopyrrolidin-1-yl)phenyl]-1,2-dihydropyridine-3-carboxylic acid], the MIC in [1] is 12.5 to 150 µg/mL (≈ 36.5 to 438 µM); in test [2] it was less than 1 µg/mL; in test [3], less than 1 µg/mL; in test [4], less than 1 µg/mL; in test [5], 12.5 to 150 µg/mL (≈ 36.5 to 438 µM); in test [6], less than 1 µg/mL. The MIC lay in the range of 12.5 to 150 µg/mL (≈ 36.5 to 438 µM) in [7], 12.5 to 150 µg/mL (≈ 36.5 to 438 µM) in test [8], 12.5 to 150 µg/mL (≈ 36.5 to 438 µM) in test [9] and 3.5 to 12.5 µg/mL (≈ 10.2 to 36.5 µM) in test [10].

Values taken from patent US9650395B2, “Antibacterial compounds and methods for use” (PTC Therapeutics, Inc., priority 2011, dated 2017).
